These results are taken from ChEMBL document CHEMBL1130481, “Structure-activity relationships of carbocyclic influenza neuraminidase inhibitors” (Bioorg Med Chem Lett, 1997).

Structures are written as SMILES. pIC50: −log10 of the molar value.

Test [1] concerns the target Neuraminidase (Influenza A virus (A/Puerto Rico/8/1934(H1N1)), UniProt P03468). In words: Inhibition of neuraminidase of influenza A/PR/8/34(H1N1).
Test [2] concerns unidentified influenza virus. In words: Concentration required for 50% inhibition of influenza A/WS/33 by plaque reduction assay. In kind it is functional, organism-based. Background: Plaques are areas of infected cells; plaque reduction assays count them against a control.

Chain of Neuraminidase (Influenza A virus (A/Puerto Rico/8/1934(H1N1)), UniProt P03468) (P03468 whole entry): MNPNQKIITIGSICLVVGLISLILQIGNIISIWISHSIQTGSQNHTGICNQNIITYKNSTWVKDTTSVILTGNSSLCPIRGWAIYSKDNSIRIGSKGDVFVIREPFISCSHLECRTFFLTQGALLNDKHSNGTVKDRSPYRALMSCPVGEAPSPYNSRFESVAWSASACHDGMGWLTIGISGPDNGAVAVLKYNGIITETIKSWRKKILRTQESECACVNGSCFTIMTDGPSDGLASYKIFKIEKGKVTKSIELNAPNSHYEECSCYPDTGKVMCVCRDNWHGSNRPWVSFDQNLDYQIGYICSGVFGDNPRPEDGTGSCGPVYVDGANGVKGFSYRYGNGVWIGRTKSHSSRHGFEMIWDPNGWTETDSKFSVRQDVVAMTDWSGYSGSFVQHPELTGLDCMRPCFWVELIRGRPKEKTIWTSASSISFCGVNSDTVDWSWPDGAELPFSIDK

As to `CCCO[C@@H]1C=C(C(=O)O)C[C@H](N)[C@H]1NC(=O)CC`, the pIC50 (as a rule, −log10 of the IC50, conventionally taken in molar units) in test [1] is 5.82.
In turn, `CCCO[C@@H]1C=C(C(=O)O)C[C@H](NC=N)[C@H]1NC(C)=O` showed a negative-log IC50 (pIC50) in test [1] of 6.85.
`CCCO[C@@H]1C=C(C(=O)O)C[C@H](N)[C@H]1NC(=O)C(F)(F)F`: the figures for the negative logarithm of the IC50 (pIC50) in test [1] and in test [2] were 5.85 and 4.66, respectively.
Take `CCCO[C@@H]1C=C(C(=O)O)C[C@H](N=C(N)N)[C@H]1NC(C)=O`: the results for the pIC50 in test [1] and in test [2] were 8.74 and 7.36, respectively.
Consider `CC(=O)N[C@@H]1[C@@H](N)CC(C(=O)O)=C[C@H]1OC1CCCCC1`, for which the pIC50 in test [1] is 7.22.
In turn, `COCO[C@@H]1C=C(C(=O)O)C[C@H](N)[C@H]1NC(C)=O` had a pIC50 in test [1] of 5.70.
On the same count and under the same terms, the same measure for `CC(=O)N[C@@H]1[C@@H](N)CC(C(=O)O)=C[C@H]1Oc1ccccc1`: 6.28; for `C=CCO[C@@H]1C=C(C(=O)O)C[C@H](N)[C@H]1NC(C)=O`: 5.66.
On the same count and under the same terms, the value for `CC(=O)N[C@@H]1[C@@H](N)CC(C(=O)O)=C[C@H]1OCCC(F)(F)F` was 6.65; that for `CC(=O)N[C@@H]1[C@@H](N)CC(C(=O)O)=C[C@H]1OC1CCCC1` was 7.66.
Regarding `CCCO[C@@H]1C=C(C(=O)O)C[C@H](N)[C@H]1NC(C)=O`, the pIC50 in test [1] is 6.89; in test [2] it was 4.36.
Turning to `CCCO[C@@H]1C=C(C(=O)O)C[C@H](N=C(N)NC)[C@H]1NC(C)=O`, the pIC50 was 8.34 in test [1] and 8.80 in test [2].
Consider `CCCO[C@@H]1C=C(C(=O)O)C[C@H](N)[C@H]1NS(C)(=O)=O`, for which the negative-log IC50 (pIC50) in test [1] was 4.60.
